Source: PubChem BioAssay (NCI)
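Where inhibition never reached the appropriate level, the endpoint shown equals the highest concentration tested. Otherwise, values were interpolated linearly from a five-concentration, 48-hour dose response in 96-well plates. TGI: total growth inhibition.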

Tests used:
Experiment in all cases: inhibition of tumour cell growth, NCI panel, 48 h
786-0 renal = test system: 786-0 renal
A498 renal = test system: A498 renal
A549 NSCLC = test system: A549 NSCLC
ACHN renal = test system: ACHN renal
CAKI-1 renal = test system: CAKI-1 renal
COLO 205 colon = test system: COLO 205 colon
DLD-1 colon = test system: DLD-1 colon
DMS 114 small cell lung = test system: DMS 114 small cell lung
DMS 273 small cell lung = test system: DMS 273 small cell lung
EKVX NSCLC = test system: EKVX NSCLC
HCC-2998 colon = test system: HCC-2998 colon
HCT-116 colon = test system: HCT-116 colon
HCT-15 colon = test system: HCT-15 colon
HL-60(TB) leukemia = test system: HL-60(TB) leukemia
HOP-18 NSCLC = test system: HOP-18 NSCLC
HOP-62 NSCLC = test system: HOP-62 NSCLC
HT29 colon = test system: HT29 colon
IGROV1 ovarian = test system: IGROV1 ovarian
K-562 leukemia = test system: K-562 leukemia
KM12 colon = test system: KM12 colon
KM20L2 colon = test system: KM20L2 colon
LOX IMVI melanoma = test system: LOX IMVI melanoma
LXFL 529 NSCLC = test system: LXFL 529 NSCLC
M14 melanoma = test system: M14 melanoma
M19-MEL melanoma = test system: M19-MEL melanoma
MALME-3M melanoma = test system: MALME-3M melanoma
MOLT-4 leukemia = test system: MOLT-4 leukemia
NCI-H226 lung = test system: NCI-H226 lung
NCI-H23 lung = test system: NCI-H23 lung
NCI-H460 lung = test system: NCI-H460 lung
NCI-H522 lung = test system: NCI-H522 lung
OVCAR-3 ovarian = test system: OVCAR-3 ovarian
OVCAR-4 ovarian = test system: OVCAR-4 ovarian
OVCAR-5 ovarian = test system: OVCAR-5 ovarian
OVCAR-8 ovarian = test system: OVCAR-8 ovarian
RXF 393 renal = test system: RXF 393 renal
SF-268 CNS = test system: SF-268 CNS
SF-295 CNS = test system: SF-295 CNS
SK-MEL-2 melanoma = test system: SK-MEL-2 melanoma
SK-MEL-28 melanoma = test system: SK-MEL-28 melanoma
SK-MEL-5 melanoma = test system: SK-MEL-5 melanoma
SK-OV-3 ovarian = test system: SK-OV-3 ovarian
SN12C renal = test system: SN12C renal
SNB-19 CNS = test system: SNB-19 CNS
SNB-75 CNS = test system: SNB-75 CNS
SR leukemia = test system: SR leukemia
SW-620 colon = test system: SW-620 colon
TK-10 renal = test system: TK-10 renal
U251 CNS = test system: U251 CNS
UACC-257 melanoma = test system: UACC-257 melanoma
UACC-62 melanoma = test system: UACC-62 melanoma
UO-31 renal = test system: UO-31 renal
XF 498 CNS = test system: XF 498 CNS
CCRF-CEM leukemia = test system: CCRF-CEM leukemia
HOP-92 NSCLC = test system: HOP-92 NSCLC
RPMI-8226 leukemia = test system: RPMI-8226 leukemia
SF-539 CNS = test system: SF-539 CNS
SNB-78 CNS = test system: SNB-78 CNS

Measured: TGI

COc1ccc(OC)c2c(C(=O)O)c(Cc3ccccc3)ccc12
not listed: CCRF-CEM leukemia | HOP-92 NSCLC | RPMI-8226 leukemia | SF-539 CNS | SNB-78 CNS
> 100 µM: all other assays above

CSC(C1c2ccccc2N(c2ccc(C)cc2)c2[nH]c(=O)n(C)c(=O)c21)S(=O)(=O)c1ccc(C)cc1 (stereo not given)
not listed: ACHN renal | HCT-15 colon | HOP-18 NSCLC | KM12 colon | RXF 393 renal | SR leukemia
> 100 µM: all other assays above
